Holding throughout (assay type): in vivo
Experiment [1] deals with Kunming mice. In words: Influence on autonomic activity of normal mice (ZIL-2 mice autonomic activity meter, counts within 10 min). The note with it: intragastric, x ± s, n = 10; for Times of activities in 1 h after drug administration/10 min: 1 h after administration; for Times of activities in 2 h after drug administration/10 min: 2 h after administration; for Times of activities in 24 h after drug administration/10 min: 24 h after administration. The method in brief:
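Activity counts during a 10-min window were taken at 1, 2 and 24 h after dosing in groups of 10 mixed-sex Kunming mice. Compounds were given in 0.5% CMC-Na at 25, 50 or 100 mg/kg. Statistics used Levene's homogeneity test, ANOVA and Dunnett's multiple comparisons.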

In experiment [2] the test system is Kunming mice. In words: Influence on hypnosis effect with pentobarbital sodium doses at the threshold (50 mg/kg i.p.). As to conditions: pentobarbital sodium 50 mg/kg i.p. 60 min later, x ± s, n = 10. The method in brief: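 Pentobarbital sodium (0.3%, 50 mg/kg i.p.) injected 60 min after a single intragastric dose (25, 50, 100 mg/kg, 0.5% CMC-Na vehicle) in Kunming mice, 10 per group, sexes balanced. Onset and length of sleep (righting reflex lost over 1 min) analysed by ANOVA; sleeping incidence by χ2 test.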

The subject of experiment [3] is Kunming mice. Kind of experiment: Influence on hypnosis effect with pentobarbital sodium doses below the threshold (25 mg/kg i.p.). As to conditions: pentobarbital sodium 25 mg/kg i.p. 60 min later, sleep observed in 30 min, n = 10. In outline:
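Percentage of mice sleeping within 30 min after subthreshold pentobarbital sodium (25 mg/kg i.p.), defined by loss of righting reflex over 1 min, analysed by χ2. Compound in 0.5% CMC-Na given intragastrically at 25/50/100 mg/kg 60 min before; groups of 10 Kunming mice, both sexes.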

[4] abbreviates: 25 mg/kg intragastric single dose.
Where [5] appears, read: 50 mg/kg intragastric single dose.
Setting [6] is: 100 mg/kg intragastric single dose.
The mark [7] stands for this setting: test drug 25 mg/kg intragastric single dose.
Setting [8] is: test drug 50 mg/kg intragastric single dose.
Where [9] appears, read: test drug 100 mg/kg intragastric single dose.

Marks after values point to notes of the source that are not given here.

The text below walks through data of patent US9669003B2, “Use of flavone and flavanone derivatives in preparation of sedative and hypnotic drugs” (priority 2012, dated 2017).

Take `CCCCCc1cc(-c2cc(=O)c3c(CC)cc(CCCCCCl)cc3o2)cc(O)c1Cc1ccccc1` [Example 19]: the entries for the “Times of activities in 1 h after drug administration/10 min” value (shortened to “Times of activities in 1 h”) in the experiment on Kunming mice [1] (25 mg/kg), in the experiment with Kunming mice [1] (50 mg/kg) and with Kunming mice [1] (100 mg/kg) were 282.2 ± 46.5 /10 min, 234.7 ± 40.1 /10 min and 229.6 ± 34.8 /10 min, respectively. The “Times of activities in 2 h after drug administration/10 min” value (from here on “Times of activities in 2 h”) with Kunming mice [1] (25 mg/kg) is recorded as 265.0 ± 45.3 /10 min; in the experiment with Kunming mice [1] (50 mg/kg) it was 243.5 ± 48.3 /10 min; in the experiment with Kunming mice [1] (100 mg/kg), 172.5 ± 39.2 /10 min. In addition, the entries for the “Times of activities in 24 h after drug administration/10 min” value (“Times of activities in 24 h” for short) with Kunming mice [1] (25 mg/kg), in the experiment with Kunming mice [1] (50 mg/kg) and in the experiment with Kunming mice [1] (100 mg/kg) were 302.8 ± 83.2 /10 min, 306.2 ± 81.3 /10 min and 287.8 ± 89.1 /10 min, respectively. Further, the duration of sleep in the experiment with Kunming mice [2] (setting [4]) is on record as 30.63 ± 20.25 min; in the experiment on Kunming mice [2] (setting [5]) it was 37.67 ± 13.45 min; with Kunming mice [2] (setting [6]), 52.65 ± 20.15 min. Besides, the time to sleep is 4.95 ± 2.00 min in the experiment on Kunming mice [2] (setting [4]), 4.57 ± 1.65 min in the experiment with Kunming mice [2] (setting [5]) and 3.94 ± 1.23 min in the experiment with Kunming mice [2] (setting [6]). The “Number of sleeping animals” value with Kunming mice [3] (setting [7]) is reported as 3; in the experiment on Kunming mice [3] (setting [8]), 6; in the experiment with Kunming mice [3] (setting [9]), 7. Besides, the “rate of sleeping (%)” value is 30% in the experiment on Kunming mice [3] (setting [7]), 60** % in the experiment with Kunming mice [3] (setting [8]) and 70** % in the experiment with Kunming mice [3] (setting [9]).

Turning to `C=Cc1c(C#N)cc(-c2cc(=O)c3c(C=CC)cc(Cc4ccccc4)cc3o2)cc1[N+](=O)[O-]` [Example 20], the “Times of activities in 1 h” value with Kunming mice [1] (25 mg/kg) was 320.3 ± 49.7 /10 min; with Kunming mice [1] (50 mg/kg) it was 283.7 ± 51.3 /10 min; in the experiment on Kunming mice [1] (100 mg/kg) it was 267.2 ± 55.3 /10 min. Moreover, the figures for the “Times of activities in 2 h” value with Kunming mice [1] (25 mg/kg), with Kunming mice [1] (50 mg/kg) and with Kunming mice [1] (100 mg/kg) were 293.6 ± 45.1 /10 min, 278.6 ± 47.5 /10 min and 250.3 ± 47.1 /10 min, respectively. The “Times of activities in 24 h” value in the experiment on Kunming mice [1] (25 mg/kg) is 317.4 ± 79.6 /10 min; with Kunming mice [1] (50 mg/kg) it was 305.2 ± 75.4 /10 min; with Kunming mice [1] (100 mg/kg) it was 305.7 ± 79.7 /10 min. For the same molecule, the duration of sleep with Kunming mice [2] (setting [4]) worked out at 38.67 ± 21.87 min; in the experiment on Kunming mice [2] (setting [5]) it was 66.34 ± 22.15 min; in the experiment with Kunming mice [2] (setting [6]), 68.09 ± 29.56 min. Moreover, the time to sleep in the experiment with Kunming mice [2] (setting [4]) is listed as 4.33 ± 1.58 min; with Kunming mice [2] (setting [5]), 3.36 ± 1.20 min; with Kunming mice [2] (setting [6]), 3.18 ± 1.10 min. The “Number of sleeping animals” value with Kunming mice [3] (setting [7]) is reported as 4; in the experiment with Kunming mice [3] (setting [8]), 6; with Kunming mice [3] (setting [9]), 6. The “rate of sleeping (%)” value in the experiment on Kunming mice [3] (setting [7]) is reported as 40* %; in the experiment on Kunming mice [3] (setting [8]), 60** %; in the experiment with Kunming mice [3] (setting [9]), 60** %.

Regarding `CC=Cc1cc(C(=O)O)c2c(=O)cc(-c3cc(C#N)c(F)c(C(=O)O)c3)oc2c1` [Example 22], the “Times of activities in 1 h” value is given as 320.3 ± 54.3 /10 min in the experiment on Kunming mice [1] (25 mg/kg), 299.4 ± 42.7 /10 min with Kunming mice [1] (50 mg/kg) and 281.5 ± 48.7 /10 min in the experiment on Kunming mice [1] (100 mg/kg). The “Times of activities in 2 h” value in the experiment with Kunming mice [1] (25 mg/kg) is 291.3 ± 42.0 /10 min; in the experiment on Kunming mice [1] (50 mg/kg), 255.3 ± 41.3 /10 min; in the experiment on Kunming mice [1] (100 mg/kg), 225.6 ± 45.3 /10 min. Besides, the “Times of activities in 24 h” value is given as 301.3 ± 76.6 /10 min in the experiment on Kunming mice [1] (25 mg/kg), 302.6 ± 91.8 /10 min in the experiment on Kunming mice [1] (50 mg/kg) and 315.4 ± 78.2 /10 min in the experiment on Kunming mice [1] (100 mg/kg). The figures for the duration of sleep with Kunming mice [2] (setting [4]), in the experiment with Kunming mice [2] (setting [5]) and in the experiment with Kunming mice [2] (setting [6]) were 30.12 ± 20.60 min, 37.78 ± 14.02 min and 52.57 ± 20.74 min, respectively. Also, the time to sleep is given as 4.79 ± 2.43 min with Kunming mice [2] (setting [4]), 4.68 ± 1.59 min with Kunming mice [2] (setting [5]) and 3.88 ± 1.18 min in the experiment on Kunming mice [2] (setting [6]). Moreover, the “Number of sleeping animals” value was 6 with Kunming mice [3] (setting [7]), 7 in the experiment with Kunming mice [3] (setting [8]) and 9 in the experiment on Kunming mice [3] (setting [9]). Also, the “rate of sleeping (%)” value in the experiment with Kunming mice [3] (setting [7]) is on record as 60** %; with Kunming mice [3] (setting [8]), 70** %; in the experiment with Kunming mice [3] (setting [9]), 90*** %.

For `CCCc1cc(-c2cc(=O)c3c(I)cc(CCS(=O)(=O)O)cc3o2)cc(C(N)=O)c1C(=O)O` [Example 23], the “Times of activities in 1 h” value in the experiment on Kunming mice [1] (25 mg/kg) is 287.2 ± 45.4 /10 min; in the experiment with Kunming mice [1] (50 mg/kg) it was 229.9 ± 40.6 /10 min; in the experiment on Kunming mice [1] (100 mg/kg) it was 135.5 ± 35.7 /10 min. The “Times of activities in 2 h” value in the experiment on Kunming mice [1] (25 mg/kg) was 263.2 ± 45.2 /10 min; in the experiment on Kunming mice [1] (50 mg/kg) it was 244.7 ± 47.6 /10 min; in the experiment on Kunming mice [1] (100 mg/kg), 181.0 ± 38.2 /10 min. In addition, the entries for the “Times of activities in 24 h” value with Kunming mice [1] (25 mg/kg), with Kunming mice [1] (50 mg/kg) and in the experiment with Kunming mice [1] (100 mg/kg) were 307.2 ± 82.1 /10 min, 300.7 ± 71.4 /10 min and 292.8 ± 90.5 /10 min, respectively. Besides, the duration of sleep is 22.77 ± 25.89 min with Kunming mice [2] (setting [4]), 28.59 ± 26.98 min in the experiment with Kunming mice [2] (setting [5]) and 64.89 ± 45.78 min in the experiment on Kunming mice [2] (setting [6]). Besides, the time to sleep in the experiment with Kunming mice [2] (setting [4]) amounted to 5.35 ± 2.33 min; in the experiment on Kunming mice [2] (setting [5]), 5.17 ± 2.26 min; in the experiment on Kunming mice [2] (setting [6]), 3.14 ± 1.21 min. The “Number of sleeping animals” value was 3 in the experiment with Kunming mice [3] (setting [7]), 4 in the experiment with Kunming mice [3] (setting [8]) and 7 with Kunming mice [3] (setting [9]). For the same molecule, the “rate of sleeping (%)” value in the experiment with Kunming mice [3] (setting [7]) is reported as 30%; in the experiment with Kunming mice [3] (setting [8]) it was 40* %; in the experiment on Kunming mice [3] (setting [9]) it was 70** %.

With `CC=Cc1cc(Cc2ccccc2)c2c(=O)cc(-c3cc(C#N)c([N+](=O)[O-])c(Cc4ccccc4)c3)oc2c1` [Example 25], the “Times of activities in 1 h” value was 286.3 ± 48.9 /10 min in the experiment with Kunming mice [1] (25 mg/kg), 185.3 ± 51.1 /10 min in the experiment with Kunming mice [1] (50 mg/kg) and 135.6 ± 39.4 /10 min in the experiment on Kunming mice [1] (100 mg/kg). In addition, the “Times of activities in 2 h” value in the experiment with Kunming mice [1] (25 mg/kg) is given as 279.9 ± 41.7 /10 min; in the experiment with Kunming mice [1] (50 mg/kg), 190.2 ± 56.9 /10 min; in the experiment with Kunming mice [1] (100 mg/kg) it was 136.8 ± 47.9 /10 min. The “Times of activities in 24 h” value in the experiment on Kunming mice [1] (25 mg/kg) is on record as 295.2 ± 82.3 /10 min; in the experiment with Kunming mice [1] (50 mg/kg) it was 296.3 ± 91.1 /10 min; with Kunming mice [1] (100 mg/kg), 281.6 ± 93.7 /10 min. Also, the duration of sleep in the experiment with Kunming mice [2] (setting [4]) worked out at 41.02 ± 18.97 min; with Kunming mice [2] (setting [5]) it was 62.87 ± 28.45 min; in the experiment with Kunming mice [2] (setting [6]), 70.23 ± 23.65 min. Also, the time to sleep with Kunming mice [2] (setting [4]) is given as 4.41 ± 1.67 min; with Kunming mice [2] (setting [5]), 3.84 ± 1.31 min; in the experiment with Kunming mice [2] (setting [6]), 3.05 ± 1.20 min. In addition, the “Number of sleeping animals” value in the experiment with Kunming mice [3] (setting [7]) turned out to be 4; in the experiment on Kunming mice [3] (setting [8]), 7; in the experiment on Kunming mice [3] (setting [9]), 7. Besides, the figures for the “rate of sleeping (%)” value with Kunming mice [3] (setting [7]), in the experiment with Kunming mice [3] (setting [8]) and in the experiment on Kunming mice [3] (setting [9]) were 40* %, 70** % and 70** %, respectively.
